Reference: article PMC7728344, “Pharmacokinetic Characterization of (Poly)phenolic Metabolites in Human Plasma and Urine after Acute and Short-Term Daily Consumption of Mango Pulp” (Molecules, 2020)
Read-outs that look alike come from different tables or passages of the source.

Columns and labels:
[1] = Concentration of (poly)phenolic metabolites in fasting urine at baseline, 24 h after single MP beverage and 15th day after 14-day MP intake (UHPLC-QQQ-MS); conditions: human, urine, oral
Text: The acute trial was a randomized, 3 arm, within-subject crossover study design (Figure 5A). The trial initiated with 3 days of food record collection to assess background (pre-study) dietary intake followed by counseling to adhere to a diet devoid of mango or its parts and relatively low in polyphenol-rich beverages/foods, which was maintained throughout the duration of the trial. […] In general, subjects were encouraged to follow their “usual” diet with the exception of foods/beverages that may interfere with the outcomes of the study. Food intake diaries and, phone call and email reminders helped subjects maintain compliance throughout the study period. After an initial 7-day run-in period on the limited polyphenol diet, subjects were assigned to a randomization sequence providing 1 of 3 study test beverages (recipes provided in Appendix A, Table A3) on three separate days in a random order: MP (500 g), MP (500 g) + VC (100 mg) or VC (100 mg) beverages. On each study day subjects arrived fasted and well hydrated. After standard admission procedures were completed (e.g., review of compliance with dietary requirements for 3 days prior to study day, dinner meal intake, usual sleep patterns), a catheter was placed by a registered nurse in subjects’ non-dominant arm and a fasting/baseline blood sample was collected (0 h). Subjects were provided with a standard breakfast meal 2 h after the study beverages. The breakfast meal was comprised of a buttermilk biscuit with butter and jelly, and scrambled egg white with shredded white cheddar cheese. After the 6 h blood collection, subjects ate a low polyphenol lunch consisting of dry roasted peanuts and fresh peeled cucumber with ranch dressing (Appendix A, Table A3).
Spot urine samples were collected in urine collection cups, immediately placed on ice and then aliquoted into individual cryovials. All the samples were stored at −80 °C until analysis.
A 14-day feeding trial was conducted with the MP only to study the effect of repetitive intake of MP on (poly)phenolic metabolite profiles. Upon completion of the acute trial, subjects were instructed to continue on the low polyphenolic diet for 2 weeks while consuming MP beverages (provided by CNRC) daily in the morning (250 g MP + 50 g water) and evening (250 g MP + 50 g water). On day 14, subjects consumed both beverages (500 g of MP in total) in the morning and reported to the CNRC on the 15th day after an overnight fast to provide a fasting blood and urine sample (Figure 5B). Blood and urine samples were collected as described above and stored at −80 °C until analysis.
The supernatant was collected and filtered through 0.2 µm polypropylene syringe filter before HPLC analysis.
The ESI conditions were the same as those used in the UHPLC-Q-TOF analysis. The quantification of the compounds was conducted by multiple-reaction monitoring (MRM) transitions. Spectra were recorded in both positive- and negative-ion mode with capillary voltage of 4500 V and drying gas flow rate of 9 L/min at 200 °C. The sheath gas temperature and flow rate were 300 °C and 11 L/min, respectively. Standards were optimized for collision energies, fragmentor voltages and MRM transitions using Mass Hunter Optimizer. The MRM transition for metabolites were created based on the results from UHPLC-Q-TOF-MS. Standards for plasma analysis were prepared in blank plasma (charcoal-stripped human plasma obtained from Bioreclamation IVT) for matrix match and for urine analysis were prepared in SMP.
The flow rate was maintained at 0.4 mL/min and the injection volume was 5 μL. The mobile phase consisted of acidified water (0.1% formic acid) (A) and acidified acetonitrile (0.1% formic acid) (B). The gradient for the separation of compounds was as follows: 5 to 5% B from 0 to 1 min; 10% B at 3 min; 15% B at 7 min; 15% B at 9 min; 20% B at 10 min; 20% B at 11 min; 25% B at 12 min; 30% B at 13 min; 30% B at 14 min; 95% B at 15 min; and back to 5% B at 16 min.

clinical = type: in vivo, human; conditions: for AUC(0-t) / Tmax / Cmax: oral, human plasma, mean ± standard error; for AUC(0-t): read-out: AUC0–24h; for Tmax: read-out: Tmax; for Cmax: 0−24 h, read-out: Cmax
Protocol: SPE procedure was conducted to extract and concentrate the (poly)phenolic compounds and their metabolites from the plasma samples. Briefly, plasma samples were thawed on ice and 500 µL plasma was diluted with 1.5 mL of 0.1% formic acid in water with addition of internal standards (2-methylhippuric acid (2 ng/mL), phloridizin (1 ng/mL)) before being loaded on preconditioned SPE cartridges. The cartridges were washed with 0.1% formic acid in water (1 mL) after loading with plasma samples. The elution of the compounds was achieved by 0.1% formic acid in methanol (1 mL) and the eluent was dried under nitrogen gas at room temperature. […] Supernatant was collected in amber HPLC vials before analysis.
The absorption and elimination of 11 major mango metabolites over 24 h was determined after MP, MP + VC, and VC intake. The plasma concentration/area at each time point was determined by the mean of 13 subjects. The time vs. concentration curves and the time vs. area curves were created using GraphPad Prism (version 8.2.1). […] Tmax is the time (h) when Cmax was achieved. Wilcoxon signed-rank test was used for Tmax analysis due to non-normal distribution. Area under the plasma concentration time curve (AUC0−24h, nmol·h/L) was calculated by the linear trapezoidal method using Microsoft Excel 2013, version 15 [63]. […]

Question: For `O=C(O)c1cc(O)c(O)c(O)c1` [Compound C1, gallic acid], which concentration at 15 day [1] is on record?
Answer: Its concentration at 15 day is 100 nM.

Question: What about the concentration at 0 h ([1]; 500 g) of the same compound?
Answer: Its concentration at 0 h is 200 nM.

Question: And the concentration at 24 h ([1]; 500 g)?
Answer: The concentration at 24 h was 200 nM.

Question: And the “time within which absorbed” value (clinical; after acute mango intake)?
Answer: Its value is 1 to 2 h.

Question: What about the “difference in plasma concentrations/areas after MP + VC beverage compared to MP beverage alone” value (clinical; increase observed, statistical outcome) of the same compound?
Answer: Its value is “not statistically significant”.

Question: And the AUC(0-t) (clinical; 100 mg, after VC beverage)?
Answer: Its AUC(0-t) is 0.0249 ± 0.0019 µM·h.

Question: And the AUC(0-t) (clinical; 500 g, after MP beverage, linear trapezoidal method)?
Answer: The AUC(0-t) was 0.0645 ± 0.0078 µM·h.

Question: And the Tmax (clinical; 500 g, after MP beverage)?
Answer: The Tmax was 2.2 ± 0.4 h.

Question: And the Cmax (clinical; after MP (mango pulp 500 g) beverage, n = 13)?
Answer: The Cmax was 20.4 ± 3.1 nM.

Question: And the Cmax (clinical; after MP + VC (mango pulp 500 g + vitamin C 100 mg) beverage)?
Answer: The Cmax was 21.1 ± 3.9 nM.

Question: And the Cmax (clinical; after VC (vitamin C 100 mg) beverage)?
Answer: Its Cmax is 5.3 ± 1.3 nM.

Question: And the AUC(0-t) (clinical; after MP + VC beverage)?
Answer: The AUC(0-t) was 0.0628 ± 0.0069 µM·h.

Question: And the Tmax (clinical; after MP + VC beverage)?
Answer: Its Tmax is 2 ± 0.3 h.
